Measurements reported in US7223865B2, “Chromogenic compounds, and use thereof as enzyme substrates” (Biomerieux, priority 2003, dated 2007).

Assays:
Type in all cases: cell-based
[1] = test system: Burkholderia cepacia (NCTC 10743); assay: glycine-aminopeptidase activity on gelled medium, Example 10; set-up: key to growth: ++ means good growth; + means moderate growth; +/− means poor growth; NG means no growth
Procedure: (§1) A gelled medium comprising this substrate is prepared as follows: 30 mg of the substrate are dissolved (heating) in 10 ml of sterile distilled water. Ten ml of this solution are then added to 90 ml of Columbia agar, kept molten at 50° C.
(§2) Various strains of microorganisms derived from the NCTC collection (National Collection of Type Cultures, Colindale, UK) were seeded onto the media thus obtained according to the multipoint inoculation described in example 8 above.
(§3) The colonies formed were examined visually after incubation for 24 h and 48 h. The color and the growth of these colonies were noted.

[2] = test system: Enterobacter cloacae (NCTC 11936); assay: as above; set-up: key to growth: ++ means good growth; + means moderate growth; +/− means poor growth; NG means no growth
Procedure: as §1, §2, §3

[3] = test system: Enterococcus faecalis (NCTC 12697); assay: as above; set-up: key to growth: ++ means good growth; + means moderate growth; +/− means poor growth; NG means no growth
Procedure: as §1, §2, §3

[4] = test system: Enterococcus faecium (NCTC 7171); assay: as above; set-up: key to growth: ++ means good growth; + means moderate growth; +/− means poor growth; NG means no growth
Procedure: as §1, §2, §3

[5] = test system: Escherichia coli O157 (NCTC 12079); assay: as above; set-up: key to growth: ++ means good growth; + means moderate growth; +/− means poor growth; NG means no growth
Procedure: as §1, §2, §3

[6] = test system: Klebsiella pneumonia (NCTC 10896); assay: as above; set-up: key to growth: ++ means good growth; + means moderate growth; +/− means poor growth; NG means no growth
Procedure: as §1, §2, §3

[7] = test system: Listeria monocytogenes (NCTC 11994); assay: as above; set-up: key to growth: ++ means good growth; + means moderate growth; +/− means poor growth; NG means no growth
Procedure: as §1, §2, §3

[8] = test system: Pseudomonas aeruginosa (NCTC 10662); assay: as above; set-up: key to growth: ++ means good growth; + means moderate growth; +/− means poor growth; NG means no growth
Procedure: as §1, §2, §3

[9] = test system: Salmonella poona (NCTC 4840); assay: as above; set-up: key to growth: ++ means good growth; + means moderate growth; +/− means poor growth; NG means no growth
Procedure: as §1, §2, §3

[10] = test system: Salmonella typhimurium (NCTC 74); assay: as above; set-up: key to growth: ++ means good growth; + means moderate growth; +/− means poor growth; NG means no growth
Procedure: as §1, §2, §3

[11] = test system: Serratia marcescens (NCTC 10211); assay: as above; set-up: key to growth: ++ means good growth; + means moderate growth; +/− means poor growth; NG means no growth
Procedure: as §1, §2, §3

[12] = test system: Shigella sonnei (NCTC 9774); assay: as above; set-up: key to growth: ++ means good growth; + means moderate growth; +/− means poor growth; NG means no growth
Procedure: as §1, §2, §3

[13] = test system: Staphylococcus aureus (NCTC 11939); assay: as above; set-up: key to growth: ++ means good growth; + means moderate growth; +/− means poor growth; NG means no growth
Procedure: as §1, §2, §3

[14] = test system: Enterococcus faecalis (NCTC 755); assay: as above; set-up: key: ++ means good growth; + means moderate growth; +/− means poor growth; NG means no growth
Procedure: as §1, §2, §3

[15] = test system: Escherichia coli (NCTC 14018); assay: as above; set-up: key: ++ means good growth; + means moderate growth; +/− means poor growth; NG means no growth
Procedure: as §1, §2, §3

[16] = test system: Staphylococcus aureus (NCTC 6571); assay: as above; set-up: key: ++ means good growth; + means moderate growth; +/− means poor growth; NG means no growth
Procedure: as §1, §2, §3

[17] = test system: Burkholderia cepacia (NCTC 10743); assay: t-BOC-L-alanyl-L-alanyl-L-alanyl-peptidase activity on gelled medium, Example 11; set-up: key to growth: ++ means good growth; + means moderate growth; +/− means poor growth; NG means no growth
Procedure: as §1, §2, §3

[18] = test system: Enterobacter cloacae (NCTC 11936); assay: as above; set-up: key to growth: ++ means good growth; + means moderate growth; +/− means poor growth; NG means no growth
Procedure: as §1, §2, §3

[19] = test system: Enterococcus faecalis (NCTC 12697); assay: as above; set-up: key to growth: ++ means good growth; + means moderate growth; +/− means poor growth; NG means no growth
Procedure: as §1, §2, §3

[20] = test system: Enterococcus faecium (NCTC 7171); assay: as above; set-up: key to growth: ++ means good growth; + means moderate growth; +/− means poor growth; NG means no growth
Procedure: as §1, §2, §3

[21] = test system: Escherichia coli O157 (NCTC 12079); assay: as above; set-up: key to growth: ++ means good growth; + means moderate growth; +/− means poor growth; NG means no growth
Procedure: as §1, §2, §3

[22] = test system: Klebsiella pneumonia (NCTC 10896); assay: as above; set-up: key to growth: ++ means good growth; + means moderate growth; +/− means poor growth; NG means no growth
Procedure: as §1, §2, §3

[23] = test system: Listeria monocytogenes (NCTC 11994); assay: as above; set-up: key to growth: ++ means good growth; + means moderate growth; +/− means poor growth; NG means no growth
Procedure: as §1, §2, §3

[24] = test system: Pseudomonas aeruginosa (NCTC 10662); assay: as above; set-up: key to growth: ++ means good growth; + means moderate growth; +/− means poor growth; NG means no growth
Procedure: as §1, §2, §3

[25] = test system: Salmonella poona (NCTC 4840); assay: as above; set-up: key to growth: ++ means good growth; + means moderate growth; +/− means poor growth; NG means no growth
Procedure: as §1, §2, §3

[26] = test system: Salmonella typhimurium (NCTC 74); assay: as above; set-up: key to growth: ++ means good growth; + means moderate growth; +/− means poor growth; NG means no growth
Procedure: as §1, §2, §3

[27] = test system: Serratia marcescens (NCTC 10211); assay: as above; set-up: key to growth: ++ means good growth; + means moderate growth; +/− means poor growth; NG means no growth
Procedure: as §1, §2, §3

[28] = test system: Shigella sonnei (NCTC 9774); assay: as above; set-up: key to growth: ++ means good growth; + means moderate growth; +/− means poor growth; NG means no growth
Procedure: as §1, §2, §3

[29] = test system: Staphylococcus aureus (NCTC 11939); assay: as above; set-up: key to growth: ++ means good growth; + means moderate growth; +/− means poor growth; NG means no growth
Procedure: as §1, §2, §3

[30] = test system: Enterococcus faecalis (NCTC 755); assay: as above; set-up: key: ++ means good growth; + means moderate growth; +/− means poor growth; NG means no growth
Procedure: as §1, §2, §3

[31] = test system: Staphylococcus aureus (NCTC 6571); assay: as above; set-up: key: ++ means good growth; + means moderate growth; +/− means poor growth; NG means no growth
Procedure: as §1, §2, §3

## C[n+]1c2ccccc2c(-c2ccc(NC(=O)CN)cc2)c2ccccc21.[Cl-] [G-4-AP-10-MA, glycyl-9-(4-aminophenyl)-10-methylacridine]
[1]; 24 h
  color of colonies: Orange
  growth: ++
[1]; 48 h
  color of colonies: Orange
  growth: ++
[2]; 24 h
  color of colonies: Orange
  growth: ++
[2]; 48 h
  color of colonies: Orange
  growth: ++
[3]; 24 h
  color of colonies: Colorless
  growth: +
[3]; 48 h
  color of colonies: Colorless
  growth: +
[4]; 24 h
  color of colonies: Colorless
  growth: +
[4]; 48 h
  color of colonies: Colorless
  growth: +
[5]; 24 h
  color of colonies: Orange
  growth: ++
[5]; 48 h
  color of colonies: Orange
  growth: ++
[6]; 24 h
  color of colonies: Orange
  growth: ++
[6]; 48 h
  color of colonies: Orange
  growth: ++
[7]; 24 h
  color of colonies: Colorless
  growth: +
[7]; 48 h
  color of colonies: Colorless
  growth: +
[8]; 24 h
  color of colonies: Pale orange
  growth: (++)
[8]; 48 h
  color of colonies: Orange
  growth: ++
[9]; 24 h
  color of colonies: Orange
  growth: ++
[9]; 48 h
  color of colonies: Orange
  growth: ++
[10]; 24 h
  color of colonies: Pale orange
  growth: (++)
[10]; 48 h
  color of colonies: Pale orange
  growth: ++
[11]; 24 h
  color of colonies: Orange
  growth: ++
[11]; 48 h
  color of colonies: Orange
  growth: ++
[12]; 24 h
  color of colonies: Orange
  growth: ++
[12]; 48 h
  color of colonies: Orange
  growth: ++
[13]; 24 h
  color of colonies: Colorless
  growth: +
[13]; 48 h
  color of colonies: Colorless
  growth: +
[14]; 24 h
  growth: NG
[14]; 48 h
  growth: NG
[15]; 24 h
  growth: NG
[15]; 48 h
  growth: NG
[16]; 24 h
  growth: NG
[16]; 48 h
  growth: NG

## C[C@H](NC(=O)OC(C)(C)C)C(=O)N[C@@H](C)C(=O)N[C@@H](C)C(=O)Nc1ccc(-c2c3ccccc3[n+](C)c3ccccc23)cc1.[Cl-] [t-BOC-L-Ala-Ala-Ala-4-AP-10-MA, t-BOC-L-alanyl-L-alanyl-L-alanyl-9-(4-aminophenyl)-10-methylacridine]
[17]; 24 h
  color of colonies: Orange
  growth: ++
[17]; 48 h
  color of colonies: Orange
  growth: ++
[18]; 24 h
  color of colonies: Orange
  growth: ++
[18]; 48 h
  color of colonies: Orange
  growth: ++
[19]; 24 h
  color of colonies: Colorless
  growth: +/−
[19]; 48 h
  color of colonies: Colorless
  growth: +/−
[20]; 24 h
  color of colonies: Colorless
  growth: +/−
[20]; 48 h
  color of colonies: Colorless
  growth: ++
[21]; 24 h
  color of colonies: Pale orange
  growth: (++)
[21]; 48 h
  color of colonies: Pale orange
  growth: ++
[22]; 24 h
  color of colonies: Orange
  growth: ++
[22]; 48 h
  color of colonies: Orange
  growth: ++
[23]; 24 h
  color of colonies: Colorless
  growth: +/−
[23]; 48 h
  color of colonies: Colorless
  growth: +
[24]; 24 h
  color of colonies: Pale orange
  growth: (++)
[24]; 48 h
  color of colonies: Pale Orange
  growth: ++
[25]; 24 h
  color of colonies: Pale orange
  growth: (++)
[25]; 48 h
  color of colonies: Pale orange
  growth: ++
[26]; 24 h
  color of colonies: Pale orange
  growth: (++)
[26]; 48 h
  color of colonies: Pale orange
  growth: ++
[27]; 24 h
  color of colonies: Orange
  growth: ++
[27]; 48 h
  color of colonies: Orange
  growth: ++
[28]; 24 h
  color of colonies: Pale orange
  growth: (++)
[28]; 48 h
  color of colonies: Pale orange
  growth: ++
[29]; 24 h
  color of colonies: Colorless
  growth: +
[29]; 48 h
  color of colonies: Colorless
  growth: +
[30]; 24 h
  growth: NG
[30]; 48 h
  growth: NG
[31]; 24 h
  growth: NG
[31]; 48 h
  growth: NG
